Experimental data from patent US8835428B2, “Diacylglycerol acyltransferase inhibitors” (Piramal Enterprises Limited, priority 2008, dated 2014).

Target: T1, hDGAT1 (Homo sapiens, UniProt O75907)
T1 construct: host or cells: Sf9 insect cells (baculovirus); microsomal preparation
T1 sequence (O75907 1-488): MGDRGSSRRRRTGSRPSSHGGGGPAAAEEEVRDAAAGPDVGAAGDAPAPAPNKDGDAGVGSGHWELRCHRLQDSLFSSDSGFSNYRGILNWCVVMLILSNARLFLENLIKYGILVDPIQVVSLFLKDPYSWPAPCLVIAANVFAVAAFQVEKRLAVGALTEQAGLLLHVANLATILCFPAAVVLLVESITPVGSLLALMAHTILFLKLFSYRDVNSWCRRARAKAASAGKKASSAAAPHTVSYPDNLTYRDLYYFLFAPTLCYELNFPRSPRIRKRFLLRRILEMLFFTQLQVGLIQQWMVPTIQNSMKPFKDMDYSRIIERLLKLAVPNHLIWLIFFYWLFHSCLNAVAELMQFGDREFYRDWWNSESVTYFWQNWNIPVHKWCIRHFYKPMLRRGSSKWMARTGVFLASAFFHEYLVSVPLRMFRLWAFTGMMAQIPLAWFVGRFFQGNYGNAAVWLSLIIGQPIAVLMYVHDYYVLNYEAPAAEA
Assay: In-vitro DGAT1 assay (hDGAT1 microsomes from Sf9 cells, 14C oleoyl CoA, triglyceride formation)
Assay type: biochemical
In short: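 Compounds tested in duplicate at 10, 5 and 1 μM for 10 min at 37 °C. Reaction: Sf9-expressed hDGAT1 microsomes (2.5–10 μg), [14C]oleoyl-CoA plus 409.5–1638 μM dioleoylglycerol, pH 7.4 Tris-HCl with fatty-acid-free BSA. Radiolabelled triglyceride extracted into heptane and scintillation-counted.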

| inhibition at 1 µM | Structure (SMILES) | also measured |
| --- | --- | --- |
| 75 to 100% | CC(C)C(NC(=O)c1cc(-c2ccc(NC(=O)Nc3cc(F)cc(F)c3)cc2)no1)C(=O)O (stereo not shown) [Example 160, 2-(3-(4-(3-(3,5-difluorophenyl)ureido)phenyl)isoxazole-5-carboxamido)-3-methylbutanoic acid] | – |
| 75 to 100% | CC(C)C(NC(=O)c1cc(-c2ccc(NC(=O)Nc3ccc(F)c(Cl)c3)cc2)no1)C(=O)O (stereo not shown) [Example 162, 2-(3-(4-(3-(3-chloro-4-fluorophenyl)ureido)phenyl)isoxazole-5-carboxamido)-3-methylbutanoic acid] | – |
| 75 to 100% | CC(C)[C@H](NC(=O)c1cc(-c2ccc(NC(=O)Nc3cc(F)cc(F)c3)cc2)no1)C(=O)O [Example 167, (S)-2-(3-(4-(3-(3,5-difluorophenyl)ureido)phenyl)isoxazole-5-carboxamido)-3-methylbutanoic acid] | – |
| 75 to 100% | Cc1ccc(NC(=O)Nc2ccc(-c3cc(C(=O)N[C@H](C(=O)O)C(C)C)on3)cc2)cc1C [Example 173, (S)-2-(3-(4-(3-(3,4-dimethylphenyl)ureido)phenyl)isoxazole-5-carboxamido)-3-methylbutanoic acid] | – |
| 75 to 100% | CC(C)[C@H](NC(=O)c1cc(-c2ccc(NC(=O)Nc3cccc(Cl)c3F)cc2)no1)C(=O)O [Example 183, (S)-2-(3-(4-(3-(3-chloro-2-fluorophenyl)ureido)phenyl)isoxazole-5-carboxamido)-3-methylbutanoic acid] | – |
| 75 to 100% | COc1ccccc1NC(=O)Nc1ccc(-c2cc(C(=O)N[C@H](C(=O)O)C(C)C)on2)cc1 [Example 185, (S)-2-(3-(4-(3-(2-methoxyphenyl)ureido)phenyl)isoxazole-5-carboxamido)-3-methylbutanoic acid] | – |

Further lines, the compound ahead of its results:

| Structure (SMILES) | inhibition at 1 µM | also measured |
| --- | --- | --- |
| CC(C)[C@H](NC(=O)c1cc(-c2ccc(NC(=O)Nc3ccc(F)cc3)cc2F)no1)C(=O)O [Example 146, (S)-2-(3-(2-fluoro-4-(3-(4-fluorophenyl)ureido)phenyl)isoxazole-5-carboxamido)-3-methylbutanoic acid] | 50 to 75% | – |
| COC(=O)C(NC(=O)c1cc(-c2ccc(NC(=O)Nc3ccccc3F)c(F)c2)no1)C(C)C (stereo not shown) [Example 147, Methyl 2-(3-(3-fluoro-4-(3-(2-fluorophenyl)ureido)phenyl)isoxazole-5-carboxamido)-3-methylbutanoate] | – | inhibition at 10 µM (At 10 μM): 50 to 75% |
| CC(C)C(NC(=O)c1cc(-c2ccc(NC(=O)Nc3ccccc3F)c(F)c2)no1)C(=O)O (stereo not shown) [Example 148, 2-(3-(3-fluoro-4-(3-(2-fluorophenyl)ureido)phenyl)isoxazole-5-carboxamide)-3-methylbutanoic acid] | – | % inhibition of hDGAT1 (At 10 μM): +++ (>75% Inhibition ≦100) |
| CC(C)C(NC(=O)c1cc(-c2ccc(NC(=O)Nc3ccc(F)cc3F)c(F)c2)no1)C(=O)O (stereo not shown) [Example 150, 2-(3-(4-(3-(2,4-Difluorophenyl)ureido)-3-fluorophenyl)isoxazole-5-carboxamido)-3-methylbutanoic acid] | – | inhibition at 10 µM (At 10 μM): 75 to 100% |
| COC(=O)C(NC(=O)c1cc(-c2ccc(NC(=O)Nc3cccc(F)c3)cc2)no1)C(C)C (stereo not shown) [Example 151, Methyl 2-(3-(4-(3-(3-fluorophenyl)ureido)phenyl)isoxazole-5-carboxamido)-3-methylbutanoate] | – | inhibition at 5 µM (At 5 μM): 50 to 75% |
| CC(C)C(NC(=O)c1cc(-c2ccc(NC(=O)Nc3cccc(F)c3)cc2)no1)C(=O)O (stereo not shown) [Example 152, 2-(3-(4-(3-(3-fluorophenyl)ureido)phenyl)isoxazole-5-carboxamido)-3-methylbutanoic acid] | – | inhibition at 5 µM (At 5 μM): 75 to 100% |
| COC(=O)C(NC(=O)c1cc(-c2ccc(NC(=O)Nc3ccccc3C)cc2)no1)C(C)C (stereo not shown) [Example 153, Methyl 3-methyl-2-(3-(4-(3-o-tolylureido)phenyl)isoxazole-5-carboxamido) butanoate] | – | % inhibition of hDGAT1 (At 5 μM): + (>0% Inhibition ≦50) |
| Cc1ccccc1NC(=O)Nc1ccc(-c2cc(C(=O)NC(C(=O)O)C(C)C)on2)cc1 (stereo not shown) [Example 154, 3-methyl-2-(3-(4-(3-o-tolylureido)phenyl)isoxazole-5-carboxamido) butanoic acid] | – | inhibition at 5 µM (At 5 μM): 75 to 100% |
| Cc1ccc(F)c(NC(=O)Nc2ccc(-c3cc(C(=O)NC(C(=O)O)C(C)C)on3)cc2)c1 (stereo not shown) [Example 156, 2-(3-(4-(3-(2-fluoro-5-methylphenyl)ureido)phenyl)isoxazole-5-carboxamido)-3-methylbutanoic acid] | 75 to 100% | – |
| CCCCc1ccc(NC(=O)Nc2ccc(-c3cc(C(=O)NC(C(=O)O)C(C)C)on3)cc2)cc1 (stereo not shown) [Example 158, 2-(3-(4-(3-(4-butylphenyl)ureido)phenyl)isoxazole-5-carboxamido)-3-methylbutanoic acid] | 75 to 100% | – |
| CC(C)[C@H](NC(=O)c1cc(-c2ccc(NC(=O)Nc3ccccc3C(F)(F)F)cc2)no1)C(=O)O [Example 164, (S)-3-methyl-2-(3-(4-(3-(2-(trifluoromethyl)phenyl)ureido)phenyl)isoxazole-5-carboxamido)butanoic acid] | 75 to 100% | – |
| COc1ccc(OC)c(NC(=O)Nc2ccc(-c3cc(C(=O)N[C@H](C(=O)O)C(C)C)on3)cc2)c1 [Example 166, (S)-2-(3-(4-(3-(2,5-Dimethoxyphenyl)ureido)phenyl)isoxazole-5-carboxamido)-3-methylbutanoic acid] | 50 to 75% | – |
| COc1ccc(NC(=O)Nc2ccc(-c3cc(C(=O)N[C@H](C(=O)O)C(C)C)on3)cc2)c(OC)c1 [Example 169, (S)-2-(3-(4-(3-(2,4-dimethoxyphenyl)ureido)phenyl)isoxazole-5-carboxamido)-3-methylbutanoic acid] | 50 to 75% | – |
| Cc1ccc(NC(=O)Nc2ccc(-c3cc(C(=O)N[C@H](C(=O)O)C(C)C)on3)cc2)c(C)c1 [Example 171, (S)-2-(3-(4-(3-(2,4-dimethylphenyl)ureido)phenyl)isoxazole-5-carboxamido)-3-methylbutanoic acid] | 75 to 100% | – |
| Cc1cccc(Cl)c1NC(=O)Nc1ccc(-c2cc(C(=O)N[C@H](C(=O)O)C(C)C)on2)cc1 [Example 175, (S)-2-(3-(4-(3-(2-Chloro-6-methylphenyl)ureido)phenyl)isoxazole-5-carboxamido)-3-methylbutanoic acid] | 0 to 50% | – |
| CC(C)[C@H](NC(=O)c1cc(-c2ccc(NC(=O)Nc3ccc4c(c3)OCO4)cc2)no1)C(=O)O [Example 177, (S)-2-(3-(4-(3-benzo[d][1,3]dioxol-5-ylureido)phenyl)isoxazole-5-carboxamido)-3-methylbutanoic acid] | 75 to 100% | – |
| CC(C)[C@H](NC(=O)c1cc(-c2ccc(NC(=O)Nc3ccc(Cl)cc3)cc2)no1)C(=O)O [Example 179, (S)-2-(3-(4-(3-(4-Chlorophenyl)ureido)phenyl)isoxazole-5-carboxamido)-3-methylbutanoic acid] | 75 to 100% | – |
| CC(C)[C@H](NC(=O)c1cc(-c2ccc(NC(=O)Nc3ccc4c(c3)CCC4)cc2)no1)C(=O)O [Example 181, (S)-2-(3-(4-(3-(2,3-dihydro-1H-inden-5-yl)ureido)phenyl)isoxazole-5-carboxamido)-3-methylbutanoic acid] | 75 to 100% | – |
| CC(C)[C@H](NC(=O)c1cc(-c2ccc(NC(=O)Nc3ccc(OC(F)(F)F)cc3)cc2)no1)C(=O)O [Example 187, (S)-3-methyl-2-(3-(4-(3-(4-(trifluoromethoxy)phenyl)ureido)phenyl)isoxazole-5-carboxamido)butanoic acid] | 75 to 100% | – |
